Test results from ChEMBL document CHEMBL4800723, “Data for DCP probe BI-1942” (2021).

Assays:
[1] = target: 5-hydroxytryptamine receptor 1B (Homo sapiens) (UniProt P28222); test: 5HT1B(H) Eurofins SafetyScreen44 (BI); conditions: filed as antagonist, Compound concentration 10.0 uM
[2] = target: 5-hydroxytryptamine receptor 1E (Homo sapiens) (UniProt P28566); conditions: Compound concentration 10.0 uM
[3] = target: Vasopressin V1a receptor (Homo sapiens) (UniProt P37288); test: V1A/HUM Eurofins SafetyScreen44 (BI); conditions: Compound concentration 10.0 uM
[4] = target: Muscarinic acetylcholine receptor M5 (Homo sapiens) (UniProt P08912); conditions: Compound concentration 10.0 uM
[5] = target: Proteinase-activated receptor 1 (Homo sapiens) (UniProt P25116); test: PAR1(H)ANTAG Eurofins SafetyScreen44 (BI); conditions: filed as antagonist, Compound concentration 10.0 uM
[6] = target: Trypsin (Homo sapiens) (UniProt P07477+P07478+P35030); test: TRYPSIN_CE Eurofins SafetyScreen44 (BI); format: protein assay; conditions: Compound concentration 10.0 uM
[7] = target: Histamine H3 receptor (Homo sapiens) (UniProt Q9Y5N1); conditions: Compound concentration 10.0 uM
[8] = target: Muscarinic acetylcholine receptor M2 (Homo sapiens) (UniProt P08172); conditions: Compound concentration 10.0 uM
[9] = target: Neutrophil collagenase (Homo sapiens) (UniProt P22894); test: MMP-8(H) Eurofins SafetyScreen44 (BI); conditions: Compound concentration 10.0 uM
[10] = target: 5-hydroxytryptamine receptor 7 (Homo sapiens) (UniProt P34969); conditions: Compound concentration 10.0 uM
[11] = target: Sodium-dependent noradrenaline transporter (Homo sapiens) (UniProt P23975); test: NEUP/H Eurofins SafetyScreen44 (BI); conditions: Compound concentration 10.0 uM
[12] = target: Endothelin-1 receptor (Homo sapiens) (UniProt P25101); test: ETA/H Eurofins SafetyScreen44 (BI); conditions: Compound concentration 10.0 uM
[13] = target: 5-hydroxytryptamine receptor 2B (Homo sapiens) (UniProt P41595); test: 5HT2B/H AG Eurofins SafetyScreen44 (BI); conditions: filed as agonist, Compound concentration 10.0 uM
[14] = target: Alpha-1A adrenergic receptor (Homo sapiens) (UniProt P35348); conditions: Compound concentration 10.0 uM
[15] = target: 3',5'-cyclic-AMP phosphodiesterase 4D (Homo sapiens) (UniProt Q08499); test: PDE4D2 Eurofins SafetyScreen44 (BI); conditions: Compound concentration 10.0 uM
[16] = target: Adenosine receptor A2a (Homo sapiens) (UniProt P29274); test: A2A/H Eurofins SafetyScreen44 (BI); conditions: filed as antagonist, Compound concentration 10.0 uM
[17] = target: Tyrosine-protein kinase Lck (Homo sapiens) (UniProt P06239); test: LCK_CE Eurofins SafetyScreen44 (BI); conditions: Compound concentration 10.0 uM
[18] = target: T1, Kappa-type opioid receptor (Homo sapiens, UniProt P41145); test: KAPPA(KOP)_HU Eurofins SafetyScreen44 (BI); conditions: Compound concentration 10.0 uM
[19] = target: Alpha-1D adrenergic receptor (Homo sapiens) (UniProt P25100); conditions: Compound concentration 10.0 uM
[20] = target: 5-hydroxytryptamine receptor 3A (Homo sapiens) (UniProt P46098); conditions: Compound concentration 10.0 uM
[21] = target: T1, Kappa-type opioid receptor; conditions: Compound concentration 10.0 uM
[22] = target: Beta-2 adrenergic receptor (Homo sapiens) (UniProt P07550); test: BETA2/HUM Eurofins SafetyScreen44 (BI); conditions: filed as antagonist, Compound concentration 10.0 uM
[23] = target: 5-hydroxytryptamine receptor 2A (Homo sapiens) (UniProt P28223); test: 5HT2AH_AGON Eurofins SafetyScreen44 (BI); conditions: filed as agonist, Compound concentration 10.0 uM
[24] = target: Matrilysin (Homo sapiens) (UniProt P09237); test: MMP-7 (H) Eurofins SafetyScreen44 (BI); conditions: Compound concentration 10.0 uM
[25] = target: Beta-1 adrenergic receptor (Homo sapiens) (UniProt P08588); test: BETA1/HUM Eurofins SafetyScreen44 (BI); conditions: Compound concentration 10.0 uM
[26] = target: Sodium-dependent noradrenaline transporter (Homo sapiens) (UniProt P23975); conditions: Compound concentration 10.0 uM
[27] = target: Histamine H1 receptor (Homo sapiens) (UniProt P35367); test: H1/PYRIL/HS Eurofins SafetyScreen44 (BI); conditions: Compound concentration 10.0 uM
[28] = target: Caspase-3 (Homo sapiens) (UniProt P42574); test: CASPASE-3 Eurofins SafetyScreen44 (BI); conditions: Compound concentration 10.0 uM
[29] = target: Caspase-6 (Homo sapiens) (UniProt P55212); test: CASPASE-6_CE Eurofins SafetyScreen44 (BI); conditions: Compound concentration 10.0 uM
[30] = target: Caspase-2 (Homo sapiens) (UniProt P42575); test: CASPASE-2(H) Eurofins SafetyScreen44 (BI); conditions: Compound concentration 10.0 uM
[31] = target: Cannabinoid receptor 1 (Homo sapiens) (UniProt P21554); test: CB1(HU)_AGON Eurofins SafetyScreen44 (BI); conditions: Rattus norvegicus; filed as agonist; Compound concentration 10.0 uM
[32] = target: Sodium-dependent serotonin transporter (Homo sapiens) (UniProt P31645); conditions: Compound concentration 10.0 uM
[33] = target: D(2) dopamine receptor (Homo sapiens) (UniProt P14416); test: D2SH_AGON Eurofins SafetyScreen44 (BI); conditions: filed as agonist, Compound concentration 10.0 uM
[34] = target: GABA-A receptor; anion channel (Rattus norvegicus) (UniProt O09028+P15431+P18506+P18508+P19969+P20236+P23574+P23576+P28471+P28473+P30191+P62813+P63079+P63138+Q91ZM7+Q9ES14); conditions: Compound concentration 10.0 uM
[35] = target: Cannabinoid receptor 2 (Homo sapiens) (UniProt P34972); test: CB2/PERIPH/H Eurofins SafetyScreen44 (BI); conditions: Compound concentration 10.0 uM
[36] = target: Tryptase (Homo sapiens) (UniProt Q9BZJ3+Q15661+Q9NRR2); test: TRYPTASE_H Eurofins SafetyScreen44 (BI); format: protein assay; conditions: Compound concentration 10.0 uM
[37] = target: D(1A) dopamine receptor (Homo sapiens) (UniProt P21728); test: D1/H Eurofins SafetyScreen44 (BI); conditions: filed as antagonist, Compound concentration 10.0 uM
[38] = target: Mu-type opioid receptor (Homo sapiens) (UniProt P35372); test: MU/H Eurofins SafetyScreen44 (BI); conditions: Compound concentration 10.0 uM
[39] = target: Cathepsin B (Homo sapiens) (UniProt P07858); test: CATHEPSB(H) Eurofins SafetyScreen44 (BI); conditions: Compound concentration 10.0 uM

T1 sequence (P41145 whole entry): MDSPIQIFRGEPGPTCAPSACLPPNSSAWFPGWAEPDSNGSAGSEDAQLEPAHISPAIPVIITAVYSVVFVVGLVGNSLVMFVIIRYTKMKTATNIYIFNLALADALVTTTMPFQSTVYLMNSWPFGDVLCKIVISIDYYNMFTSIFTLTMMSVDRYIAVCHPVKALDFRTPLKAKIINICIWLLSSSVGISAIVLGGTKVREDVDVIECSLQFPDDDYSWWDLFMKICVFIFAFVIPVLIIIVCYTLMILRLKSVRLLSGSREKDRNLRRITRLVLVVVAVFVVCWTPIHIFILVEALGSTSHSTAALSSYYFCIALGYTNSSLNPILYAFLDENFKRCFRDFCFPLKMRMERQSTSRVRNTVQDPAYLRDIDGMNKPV
Chain of Sodium-dependent noradrenaline transporter (Homo sapiens) (P23975 whole entry): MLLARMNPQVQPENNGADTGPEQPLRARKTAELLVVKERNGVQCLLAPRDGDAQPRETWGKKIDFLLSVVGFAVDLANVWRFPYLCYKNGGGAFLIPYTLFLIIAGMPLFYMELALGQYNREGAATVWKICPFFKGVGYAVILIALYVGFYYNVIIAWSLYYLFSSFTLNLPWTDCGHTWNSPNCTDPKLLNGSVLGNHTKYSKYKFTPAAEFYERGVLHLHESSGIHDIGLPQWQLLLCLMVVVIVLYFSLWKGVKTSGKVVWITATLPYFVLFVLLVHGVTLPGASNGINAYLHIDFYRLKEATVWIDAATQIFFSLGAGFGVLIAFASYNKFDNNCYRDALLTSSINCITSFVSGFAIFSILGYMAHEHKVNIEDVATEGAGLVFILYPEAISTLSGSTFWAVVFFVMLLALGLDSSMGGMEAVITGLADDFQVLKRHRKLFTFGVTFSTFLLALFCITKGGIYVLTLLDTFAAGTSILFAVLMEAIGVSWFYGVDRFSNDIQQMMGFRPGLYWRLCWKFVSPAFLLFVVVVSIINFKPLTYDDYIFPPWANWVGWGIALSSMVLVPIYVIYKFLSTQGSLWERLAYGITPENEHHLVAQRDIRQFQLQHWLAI
Chain of Adenosine receptor A2a (Homo sapiens) (P29274 whole entry): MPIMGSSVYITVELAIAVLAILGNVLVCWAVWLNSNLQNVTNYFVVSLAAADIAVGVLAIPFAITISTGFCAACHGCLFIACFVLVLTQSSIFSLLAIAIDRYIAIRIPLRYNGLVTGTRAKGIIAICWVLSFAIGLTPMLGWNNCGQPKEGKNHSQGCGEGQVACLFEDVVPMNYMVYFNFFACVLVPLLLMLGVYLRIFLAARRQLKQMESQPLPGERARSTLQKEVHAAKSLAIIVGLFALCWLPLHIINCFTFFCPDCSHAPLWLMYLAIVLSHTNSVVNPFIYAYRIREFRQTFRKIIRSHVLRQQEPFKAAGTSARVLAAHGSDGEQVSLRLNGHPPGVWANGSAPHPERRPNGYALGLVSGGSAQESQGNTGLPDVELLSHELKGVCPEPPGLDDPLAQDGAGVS
Chain of Histamine H1 receptor (Homo sapiens) (P35367 whole entry): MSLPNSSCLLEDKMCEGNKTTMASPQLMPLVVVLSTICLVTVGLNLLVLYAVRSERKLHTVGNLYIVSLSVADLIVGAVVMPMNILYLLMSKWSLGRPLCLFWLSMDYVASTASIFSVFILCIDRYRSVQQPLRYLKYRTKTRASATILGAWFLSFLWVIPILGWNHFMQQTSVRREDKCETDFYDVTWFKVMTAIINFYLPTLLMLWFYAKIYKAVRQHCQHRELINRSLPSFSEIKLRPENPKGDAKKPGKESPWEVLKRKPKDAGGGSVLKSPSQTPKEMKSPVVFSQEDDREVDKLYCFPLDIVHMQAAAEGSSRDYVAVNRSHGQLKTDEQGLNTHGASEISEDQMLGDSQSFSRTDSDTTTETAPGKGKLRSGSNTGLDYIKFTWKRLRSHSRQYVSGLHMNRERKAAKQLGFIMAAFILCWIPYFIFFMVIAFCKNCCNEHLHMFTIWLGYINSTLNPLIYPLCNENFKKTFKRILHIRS
Chain of D(2) dopamine receptor (Homo sapiens) (P14416 whole entry): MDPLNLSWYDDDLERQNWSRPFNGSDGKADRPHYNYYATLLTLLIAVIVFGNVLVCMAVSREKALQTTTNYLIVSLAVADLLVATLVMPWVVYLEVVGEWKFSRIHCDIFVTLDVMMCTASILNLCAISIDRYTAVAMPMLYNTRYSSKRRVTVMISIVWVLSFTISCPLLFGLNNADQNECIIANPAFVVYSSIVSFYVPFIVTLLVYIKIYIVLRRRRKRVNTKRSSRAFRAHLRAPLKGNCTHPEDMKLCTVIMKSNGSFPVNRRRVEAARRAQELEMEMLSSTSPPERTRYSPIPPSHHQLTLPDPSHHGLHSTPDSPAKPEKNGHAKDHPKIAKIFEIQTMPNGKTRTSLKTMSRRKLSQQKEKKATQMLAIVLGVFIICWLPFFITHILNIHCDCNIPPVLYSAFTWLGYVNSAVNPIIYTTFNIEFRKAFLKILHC
Chain of 5-hydroxytryptamine receptor 1E (Homo sapiens) (P28566 whole entry): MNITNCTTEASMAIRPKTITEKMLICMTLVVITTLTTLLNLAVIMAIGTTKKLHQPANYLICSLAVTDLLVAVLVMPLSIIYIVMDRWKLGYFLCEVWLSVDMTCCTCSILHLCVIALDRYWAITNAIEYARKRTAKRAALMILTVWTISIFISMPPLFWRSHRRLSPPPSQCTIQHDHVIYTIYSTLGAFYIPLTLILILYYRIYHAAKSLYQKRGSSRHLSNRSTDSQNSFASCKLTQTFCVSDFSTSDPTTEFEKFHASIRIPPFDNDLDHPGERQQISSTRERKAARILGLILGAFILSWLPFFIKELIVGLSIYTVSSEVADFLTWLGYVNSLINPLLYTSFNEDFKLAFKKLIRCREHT
Chain of Matrilysin (Homo sapiens) (P09237 whole entry): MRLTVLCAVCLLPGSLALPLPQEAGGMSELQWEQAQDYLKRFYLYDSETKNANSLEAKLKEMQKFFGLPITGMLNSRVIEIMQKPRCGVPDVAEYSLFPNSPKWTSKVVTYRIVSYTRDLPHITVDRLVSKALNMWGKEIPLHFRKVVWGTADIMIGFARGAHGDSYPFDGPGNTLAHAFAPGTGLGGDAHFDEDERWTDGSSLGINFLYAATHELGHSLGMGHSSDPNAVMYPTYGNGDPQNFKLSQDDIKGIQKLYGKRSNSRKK
Chain of Caspase-3 (Homo sapiens) (P42574 29-175 limits assumed): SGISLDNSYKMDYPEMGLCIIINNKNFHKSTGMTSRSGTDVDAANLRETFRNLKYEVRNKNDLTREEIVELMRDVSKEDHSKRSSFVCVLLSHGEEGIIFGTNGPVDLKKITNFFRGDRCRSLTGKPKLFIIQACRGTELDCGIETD
Chain of Caspase-3 (Homo sapiens) (P42574 176-277 limits assumed): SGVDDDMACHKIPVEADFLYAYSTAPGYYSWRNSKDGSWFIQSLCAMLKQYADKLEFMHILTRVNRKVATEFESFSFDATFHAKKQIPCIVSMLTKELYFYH
Chain of Sodium-dependent serotonin transporter (Homo sapiens) (P31645 whole entry, looked up): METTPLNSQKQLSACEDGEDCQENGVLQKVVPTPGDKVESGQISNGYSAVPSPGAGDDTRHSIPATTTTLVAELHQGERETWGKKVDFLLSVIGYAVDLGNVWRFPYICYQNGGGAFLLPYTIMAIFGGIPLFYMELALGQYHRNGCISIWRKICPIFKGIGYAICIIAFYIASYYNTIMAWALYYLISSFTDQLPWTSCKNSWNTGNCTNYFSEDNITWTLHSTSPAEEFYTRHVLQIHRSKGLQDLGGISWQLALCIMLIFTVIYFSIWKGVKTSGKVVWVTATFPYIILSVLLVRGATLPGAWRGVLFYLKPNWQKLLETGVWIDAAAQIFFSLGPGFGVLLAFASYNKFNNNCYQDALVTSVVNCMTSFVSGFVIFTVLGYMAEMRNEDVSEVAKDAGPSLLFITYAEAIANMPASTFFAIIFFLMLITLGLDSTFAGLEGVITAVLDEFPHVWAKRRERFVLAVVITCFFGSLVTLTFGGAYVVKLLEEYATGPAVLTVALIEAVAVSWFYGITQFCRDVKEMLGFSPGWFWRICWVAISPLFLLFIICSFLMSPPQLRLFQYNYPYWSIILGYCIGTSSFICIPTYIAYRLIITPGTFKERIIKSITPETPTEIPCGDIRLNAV
Chain of Caspase-6 (Homo sapiens) (P55212 24-179 limits assumed): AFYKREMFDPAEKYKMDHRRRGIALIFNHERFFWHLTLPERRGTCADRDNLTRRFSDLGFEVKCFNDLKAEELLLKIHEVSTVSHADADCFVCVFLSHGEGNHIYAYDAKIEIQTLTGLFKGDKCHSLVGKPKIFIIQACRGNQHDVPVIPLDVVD
Chain of Caspase-6 (Homo sapiens) (P55212 194-293 limits assumed): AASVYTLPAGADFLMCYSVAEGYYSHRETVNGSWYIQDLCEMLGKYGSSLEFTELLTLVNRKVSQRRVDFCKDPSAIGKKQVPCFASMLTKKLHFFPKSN
Chain of Proteinase-activated receptor 1 (Homo sapiens) (P25116 whole entry): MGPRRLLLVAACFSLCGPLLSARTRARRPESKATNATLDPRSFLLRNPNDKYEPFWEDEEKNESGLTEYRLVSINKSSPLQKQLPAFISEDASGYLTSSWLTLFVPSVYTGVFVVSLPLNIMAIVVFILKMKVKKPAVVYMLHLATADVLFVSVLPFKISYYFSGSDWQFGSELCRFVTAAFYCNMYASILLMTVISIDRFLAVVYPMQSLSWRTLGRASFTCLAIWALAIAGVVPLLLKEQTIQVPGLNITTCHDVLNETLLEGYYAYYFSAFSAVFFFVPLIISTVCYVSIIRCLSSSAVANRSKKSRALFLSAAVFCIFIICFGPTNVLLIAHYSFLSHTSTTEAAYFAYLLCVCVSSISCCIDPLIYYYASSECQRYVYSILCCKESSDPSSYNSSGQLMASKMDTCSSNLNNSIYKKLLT
Chain of Caspase-2 (Homo sapiens) (P42575 170-325 limits assumed): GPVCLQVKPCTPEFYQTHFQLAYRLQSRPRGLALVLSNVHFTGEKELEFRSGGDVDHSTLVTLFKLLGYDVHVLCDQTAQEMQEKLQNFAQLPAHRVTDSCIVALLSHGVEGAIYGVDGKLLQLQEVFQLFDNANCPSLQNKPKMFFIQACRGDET
Chain of Caspase-2 (Homo sapiens) (P42575 334-452 limits assumed): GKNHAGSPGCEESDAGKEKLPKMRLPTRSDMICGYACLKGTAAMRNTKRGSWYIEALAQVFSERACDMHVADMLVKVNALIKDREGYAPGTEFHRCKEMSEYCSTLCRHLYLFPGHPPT

With `CC[C@H](CC(=O)O)n1c(=O)c2ncccc2n(Cc2cn(C)c3cc(C)cc(C)c23)c1=O` [BI-1942] the residual activity [1] was 86%, the inhibition [2] was -9.73% and the residual activity [3] was 101%. The inhibition [4] was 8.73%, the residual activity [5] was 120% and the residual activity [6] was 108%. The inhibition [7] was 3.32%, the inhibition [8] was 12% and the residual activity [9] was 107%. The inhibition [10] was 27.2%, the residual activity [11] was 102% and the residual activity [12] was 106%. For the same compound, the residual activity [13] was 100%, the inhibition [14] was 0.23% and the residual activity [15] was 106%. For the same compound, the residual activity [16] was 98%, the residual activity [17] was 103% and the residual activity [18] was 89%. For the same compound, the inhibition [19] was 12.1%, the inhibition [20] was 0.31% and the inhibition [21] was 95.9%. For the same compound, the residual activity [22] was 93%, the residual activity [23] was 87% and the residual activity [24] was 100%. The residual activity [25] was 105%, the inhibition [26] was 31.5% and the residual activity [27] was 100%. It also gave a residual activity [28] of 97%, a residual activity [29] of 99% and a residual activity [30] of 156%. For the same compound, the residual activity [31] was 114%, the inhibition [32] was 4.96% and the residual activity [33] was 108%. It also gave an inhibition [34] of 3.5%, a residual activity [35] of 109% and a residual activity [36] of 102%. It also gave a residual activity [37] of 96%, a residual activity [38] of 96% and a residual activity [39] of 98%.
